Assay results reported in PubChem BioAssay AID1996.
≈ marks a conversion by molar mass, not a printed value.

conditions: buffer; pH 7.4; 200.0 µM

Q: For `CCCCc1nc(C(N)=O)c2[nH]c(=O)n(-c3ccccc3F)c2n1`, which solubility kinetic is on record?
A: 3.7 µg/mL (≈ 11.2 µM)

Q: Which solubility kinetic does the source give for `COc1ccc(OCC(=O)Nc2cc(OC)ccc2N2CCCCC2)cc1` here?
A: < 0.4 µg/mL

Q: For `CCOC(=O)N1CCc2c(sc(NC(=O)CN(CC)CC)c2C#N)C1`, which solubility kinetic is on record?
A: > 54.7 µg/mL

Q: Which solubility kinetic does the source give for `CC(C)C(NS(=O)(=O)c1cc(C(=O)O)ccc1Cl)C(=O)O` (stereo unspecified) here?
A: 44.7 µg/mL (≈ 133 µM)

Q: With `Cc1c(C(=O)NNC(=O)c2cccnc2)cccc1[N+](=O)[O-]` as the molecule, how does the solubility kinetic read?
A: > 45 µg/mL

Q: For `O=[N+]([O-])c1ccc2c(c1)/C(=N\O)c1ccccc1-2`, which solubility kinetic is on record?
A: 0.5 µg/mL (≈ 2.08 µM)

Q: Which solubility kinetic does the source give for `CC1CC(C)(C)N2C(=O)C(=C(C#N)C#N)c3cccc1c32` (stereo unspecified) here?
A: 1.2 µg/mL (≈ 4.33 µM)

Q: Which solubility kinetic does the source give for `CCOc1cccc(C(=O)N/N=C/c2ccoc2)c1` here?
A: > 38.7 µg/mL

Q: Which solubility kinetic does the source give for `CC(C)(C)Cc1nnc(NC(=O)c2ccco2)s1` here?
A: > 39.8 µg/mL

Q: For `CC(C)(C)C(=O)NC(=S)Nc1ccc(C(F)(F)F)cc1`, which solubility kinetic is on record?
A: 1.1 µg/mL (≈ 3.61 µM)

Q: Which solubility kinetic does the source give for `COc1cccc(Nc2nc(C)nc3c2oc2ccccc23)c1` here?
A: 0.3 µg/mL (≈ 0.983 µM)

Q: With `O=C(OCc1c(F)cccc1Cl)c1cccnc1Cl` as the molecule, how does the solubility kinetic read?
A: 5.1 µg/mL (≈ 17 µM)

Q: Which solubility kinetic does the source give for `COc1cc(/C=C2\SC(=O)NC2=O)ccc1OCC(=O)N1CCOCC1` here?
A: > 56.8 µg/mL

Q: Which solubility kinetic does the source give for `Cc1ccc(S(=O)(=O)N2CCC(C(=O)NCCCN3CCCC3=O)CC2)cc1` here?
A: 51.9 µg/mL (≈ 127 µM)

Q: With `COc1ccc(C(=O)C2CCN(CC(=O)Nc3ccccc3F)CC2)cc1` as the molecule, how does the solubility kinetic read?
A: 4.5 µg/mL (≈ 12.1 µM)

Q: For `CC(C)c1ccc(OCCCN2CCCC2)cc1`, which solubility kinetic is on record?
A: 28.8 µg/mL (≈ 116 µM)

Q: Which solubility kinetic does the source give for `CNS(=O)(=O)c1ccc(NC(=O)c2csc(C)c2)cc1` here?
A: 6.9 µg/mL (≈ 22.2 µM)

Q: Which solubility kinetic does the source give for `CCCCC(=O)Nc1cc([N+](=O)[O-])ccc1F` here?
A: 31.8 µg/mL (≈ 132 µM)

Q: Which solubility kinetic does the source give for `Cc1csc(SCC(=O)NC(C)c2ccccc2)n1` (stereo unspecified) here?
A: > 43.9 µg/mL

Q: Which solubility kinetic does the source give for `Cc1cc(OCC(=O)N2CCC(C(=O)O)CC2)c2c(C)cc(=O)oc2c1` here?
A: > 53.9 µg/mL

Q: With `CC(=O)Nc1ccc(S(=O)(=O)Nc2ccc3c(c2)CCC3)cc1` as the molecule, how does the solubility kinetic read?
A: 4.2 µg/mL (≈ 12.7 µM)

Q: Which solubility kinetic does the source give for `Cc1ccc(NC(=O)CN2C(=S)NC(C)(C)CC2C)cc1Cl` (stereo unspecified) here?
A: 8.2 µg/mL (≈ 24.1 µM)

Q: With `CC(C)Cc1ccc(C(C)C(N)=NCCc2ccccc2)cc1.Cl` (stereo unspecified) as the molecule, how does the solubility kinetic read?
A: 51.3 µg/mL

Q: For `Cc1cc(NC(=O)COc2ccccc2)ccc1Cl`, which solubility kinetic is on record?
A: 1.9 µg/mL (≈ 6.89 µM)

Q: For `O=C(O)CN1CCCCCC1=O`, which solubility kinetic is on record?
A: > 25.7 µg/mL

Q: With `CC1(C)Oc2ccc(C(=O)Nc3ccccc3)cc2N(CC#N)C1=O` as the molecule, how does the solubility kinetic read?
A: > 50.3 µg/mL

Q: With `Cc1ccc(S(=O)(=O)CCN2C=CC(C(F)(F)F)=NCC2)cc1` as the molecule, how does the solubility kinetic read?
A: 51.4 µg/mL (≈ 148 µM)

Q: With `COc1ccc(CCNCc2cccn2C)cc1.Cl` as the molecule, how does the solubility kinetic read?
A: 40.5 µg/mL

Q: Which solubility kinetic does the source give for `O=c1[nH]sc2ccccc12` here?
A: 21.7 µg/mL (≈ 144 µM)

Q: For `COc1cc(CC(=O)OCC(=O)N2CCN(C(=O)c3ccco3)CC2)cc(OC)c1OC`, which solubility kinetic is on record?
A: > 67 µg/mL

Q: Which solubility kinetic does the source give for `COc1cc(OC)cc(C(=O)NCC(=O)OCC(=O)NC2CCCc3ccccc32)c1` (stereo unspecified) here?
A: 58.5 µg/mL (≈ 137 µM)

Q: For `C[N+](C)(C)CCOC(=O)CBr.[Br-]`, which solubility kinetic is on record?
A: > 45.8 µg/mL

Q: With `Cc1cc(=O)[nH]c(SCc2cccc3cccnc23)n1` as the molecule, how does the solubility kinetic read?
A: 13.4 µg/mL (≈ 47.3 µM)

Q: Which solubility kinetic does the source give for `O=c1[nH]c(O)c(C=Nc2cc(F)cc(F)c2)c(=O)[nH]1` here?
A: 2.8 µg/mL (≈ 10.5 µM)

Q: Which solubility kinetic does the source give for `Cc1cccc(C(=O)NCCNC(=O)c2cnccn2)c1` here?
A: 38.5 µg/mL (≈ 135 µM)

Q: With `O=C1NC(c2ccccc2Br)=N/C1=C\c1ccco1` as the molecule, how does the solubility kinetic read?
A: 13.6 µg/mL (≈ 42.9 µM)

Q: For `CC(=Nc1ccc2c(c1)CCC2)c1c(O)n(-c2ccccc2)c(=O)[nH]c1=O`, which solubility kinetic is on record?
A: < 0.3 µg/mL

Q: For `N#Cc1ccc(NC(=O)CN2CCCC2)cc1Cl`, which solubility kinetic is on record?
A: > 39.6 µg/mL

Q: Which solubility kinetic does the source give for `Cc1cc(C)nc(NC(=O)c2ccccc2O)n1` here?
A: > 36.5 µg/mL

Q: With `CCCC1Cc2[nH]c(=O)c(C#N)cc2CO1` (stereo unspecified) as the molecule, how does the solubility kinetic read?
A: > 32.7 µg/mL

Q: For `COc1cc(CO)ccc1OCc1ccc(Cl)nc1`, which solubility kinetic is on record?
A: > 42 µg/mL

Q: With `Cc1c(C)n(Cc2ccccc2)c2ncnc(NCCO)c12` as the molecule, how does the solubility kinetic read?
A: 41.2 µg/mL (≈ 139 µM)

Q: For `O=C(CN1C(=O)NC2(CCOc3ccccc32)C1=O)NCCc1ccc(F)cc1` (stereo unspecified), which solubility kinetic is on record?
A: > 59.6 µg/mL

Q: With `Cc1ccc(C)c(OCCC(=O)NCCc2ccc(F)cc2)c1` as the molecule, how does the solubility kinetic read?
A: 31.5 µg/mL (≈ 99.9 µM)

Q: Which solubility kinetic does the source give for `Cc1cccc(C(=O)OCC(=O)NC(=O)c2ccccc2)c1O` here?
A: < 0.7 µg/mL

Q: With `CN(C)c1cccc(C(=O)N/C=C/n2cnc3cc(C(F)(F)F)ccc32)c1` as the molecule, how does the solubility kinetic read?
A: 0.4 µg/mL (≈ 1.07 µM)

Q: Which solubility kinetic does the source give for `COc1ccccc1C1(O)C(=O)Nc2ccc(C)cc21` (stereo unspecified) here?
A: > 40.4 µg/mL

Q: With `O=Cc1c(C(=O)O)n(Cc2ccc(F)cc2Cl)c2ccccc12` as the molecule, how does the solubility kinetic read?
A: > 49.8 µg/mL

Q: For `CC1(C)Cc2nc3oc4c(SCC(N)=O)ncnc4c3cc2CO1`, which solubility kinetic is on record?
A: 17.8 µg/mL (≈ 51.7 µM)

Q: With `COc1cccc(C(=O)N2CCn3c2nc2ccccc23)c1` as the molecule, how does the solubility kinetic read?
A: > 44 µg/mL

Q: With `O=C(CSc1nnc2ccccn12)NNC(=O)c1cccc(Cl)c1` as the molecule, how does the solubility kinetic read?
A: > 54.3 µg/mL

Q: Which solubility kinetic does the source give for `CCOc1ccc(C(=O)NCCNC(=O)c2ccc(OCC)cc2)cc1` here?
A: 1.5 µg/mL (≈ 4.21 µM)

Q: With `Cn1c(=O)c(S(=O)C2CCCCC2)c(O)c2ccccc21` (stereo unspecified) as the molecule, how does the solubility kinetic read?
A: > 45.8 µg/mL

Q: For `CCOC(=O)C1CCCN(CCC(=O)Nc2cc(C)cc(C)c2)C1` (stereo unspecified), which solubility kinetic is on record?
A: > 49.9 µg/mL

Q: Which solubility kinetic does the source give for `COC(=O)C1CN(C(=O)COc2ccccc2)c2ccccc2O1` (stereo unspecified) here?
A: 48.7 µg/mL (≈ 149 µM)

Q: For `Cc1ccc(NS(=O)(=O)c2ccc3[nH]c(=O)[nH]c3c2)c(C)c1`, which solubility kinetic is on record?
A: 5 µg/mL (≈ 15.8 µM)

Q: For `CC1(C)CC2CC(C)(CN2C(=O)COC(=O)c2ccc(O)cc2O)C1` (stereo unspecified), which solubility kinetic is on record?
A: 23.4 µg/mL (≈ 67.4 µM)

Q: For `Cc1nc2cc(NC(=O)Nc3cccc(F)c3)ccc2n1C`, which solubility kinetic is on record?
A: 3.3 µg/mL (≈ 11.1 µM)

Q: Which solubility kinetic does the source give for `Cc1cccc(NC(=O)CCOc2ccccc2)c1C` here?
A: 15.6 µg/mL (≈ 57.9 µM)

Q: For `Cc1cccc(C)c1OCC(=O)Nc1ccc2c(c1)C(=O)NC2=O`, which solubility kinetic is on record?
A: 1.2 µg/mL (≈ 3.7 µM)

Q: For `Cc1cc(Cl)ccc1NC(=S)NCCc1ccc(Cl)cc1`, which solubility kinetic is on record?
A: < 0.4 µg/mL

Q: Which solubility kinetic does the source give for `Cc1ccc(C23CC4CC(CC(C(N)=O)(C4)C2)C3)cc1` here?
A: 16.6 µg/mL (≈ 61.6 µM)

Q: For `COc1cccc(C(=O)OCC(=O)Nc2ccc3c(c2)OCCO3)c1`, which solubility kinetic is on record?
A: 8 µg/mL (≈ 23.3 µM)

Q: Which solubility kinetic does the source give for `Nc1nc(-c2cc3c(cc2Cl)OCCO3)cs1` here?
A: 25.9 µg/mL (≈ 96.4 µM)

Q: For `O=C(Nc1ccccc1Cl)OCc1cncs1`, which solubility kinetic is on record?
A: 35.1 µg/mL (≈ 131 µM)

Q: For `CCCOc1ccc(/C=C2\SC(N)=NC2=O)cc1OC`, which solubility kinetic is on record?
A: 2.5 µg/mL (≈ 8.55 µM)

Q: Which solubility kinetic does the source give for `Cc1cc(C)cc(Nc2nc3ccccc3c(=O)[nH]2)c1` here?
A: 0.2 µg/mL (≈ 0.754 µM)

Q: For `Clc1ccc(-c2cc(CN3CCCCC3)no2)cc1Cl`, which solubility kinetic is on record?
A: 0.4 µg/mL (≈ 1.29 µM)

Q: Which solubility kinetic does the source give for `CN1CCN(c2nc3c(c(=O)[nH]c(=O)n3C)n2Cc2ccccc2)CC1` here?
A: 52.7 µg/mL (≈ 149 µM)

Q: For `Cc1cc(Cl)ccc1NC(=O)CCN1C(=O)NC(C)(C)C1=O`, which solubility kinetic is on record?
A: > 48.6 µg/mL

Q: Which solubility kinetic does the source give for `COc1ccc(CC(=O)NCC2CCCCC2)cc1OC` here?
A: > 43.7 µg/mL

Q: For `Cc1snc(SCc2c(F)cccc2Cl)c1C#N`, which solubility kinetic is on record?
A: < 0.3 µg/mL

Q: Which solubility kinetic does the source give for `COCCn1c(-c2cccs2)nc2nc3ccccc3nc21` here?
A: 39.7 µg/mL (≈ 128 µM)

Q: With `Cc1cnc(NC(=O)Cc2ccc(S(=O)(=O)N3CCOCC3)s2)s1` as the molecule, how does the solubility kinetic read?
A: 19.7 µg/mL (≈ 50.8 µM)

Q: For `COc1ccccc1NC(=O)NCc1ccc(C)n1C`, which solubility kinetic is on record?
A: 19.9 µg/mL (≈ 72.8 µM)

Q: For `COc1ccccc1NS(=O)(=O)c1ccc(C(=O)NCC(c2ccc(F)cc2)N2CCOCC2)cc1` (stereo unspecified), which solubility kinetic is on record?
A: > 77 µg/mL

Q: Which solubility kinetic does the source give for `O=C(COc1ccc(Br)cc1)N1CCc2ccccc21` here?
A: < 0.7 µg/mL

Q: Which solubility kinetic does the source give for `CC1=C/C(=N\OS(=O)(=O)c2ccccc2)C(C)=CC1=O` here?
A: 6.4 µg/mL (≈ 22 µM)

Q: Which solubility kinetic does the source give for `OC(C#CCCN1CCCCC1)(c1ccccc1)C1CCCCC1` (stereo unspecified) here?
A: 25.1 µg/mL (≈ 77.1 µM)

Q: Which solubility kinetic does the source give for `O=C(NCCCn1ccnc1)c1cccc(Br)c1` here?
A: 46.2 µg/mL (≈ 150 µM)

Q: For `CN(C)c1nc(C(=O)O)nc(N2CCOCC2)n1`, which solubility kinetic is on record?
A: 36.2 µg/mL (≈ 143 µM)

Q: With `N#Cc1cccc(NC(=O)CCc2ccc(S(=O)(=O)N3CCOCC3)cc2)c1` as the molecule, how does the solubility kinetic read?
A: 48 µg/mL (≈ 120 µM)

Q: For `O=S(=O)(O)c1ccc(SCc2ccccc2)nc1`, which solubility kinetic is on record?
A: > 42.2 µg/mL

Q: Which solubility kinetic does the source give for `O=C(COc1ccccc1Cl)NCCNC(=O)c1ccco1` here?
A: 47.3 µg/mL (≈ 147 µM)

Q: With `CCOc1ccc(NC(=O)CCS(=O)(=O)c2ccc(C)cc2)cc1` as the molecule, how does the solubility kinetic read?
A: > 52.1 µg/mL

Q: For `COCCN(Cc1ccccc1)C(=S)Nc1ccc(Cl)cc1`, which solubility kinetic is on record?
A: 8.6 µg/mL (≈ 25.7 µM)
